Assay results reported in US9278962B2 (Cytokinetics, Inc., priority 2011, dated 2016).

Test system: rabbit skeletal myofibrils (approximately 90% fast fibers)
Assay: Activation of fast skeletal myofibrils (PUMA coupled-enzyme ATPase assay, AC1.4)
Type: biochemical
Conditions: concentration at which the compound increased enzymatic activity by 40%, calcium at pCa25

SMILES | Mean AC1.4 (Table 2) | further results
N#Cc1ccccc1-c1nnc(NCC2(c3ncccc3F)CCC2)s1 [2-(5-((1-(3-fluoropyridin-2-yl)cyclobutyl)methylamino)-1,3,4-thiadiazol-2-yl)benzonitrile] |  | Mean AC1.4 (Table 3): B (B=1-10 uM)
N#Cc1ccc2nc(NCC3(c4ncccc4F)CCC3)sc2c1 [2-((1-(3-fluoropyridin-2-yl)cyclobutyl)methylamino)benzo[d] thiazole-6-carbonitrile] |  | Mean AC1.4 (Table 4): B (B=1-10 uM)
Fc1ccc(Br)cc1-c1nnc(NC[C@]2(c3ncccc3F)C[C@@H](F)C2)s1 [5-(5-bromo-2-fluorophenyl)-N-(((cis)-3-fluoro-1-(3-fluoropyridin-2-yl)cyclobutyl)methyl)-1,3,4-thiadiazol-2-amine] |  | Mean AC1.4 (Table 3): A (A=<1 uM)
Oc1ccc(CCNc2nc(Cc3ccc(F)cc3)ns2)cc1 [4-[2-({3-[(4-fluorophenyl)methyl]-1,2,4-thiadiazol-5-yl}amino)ethyl]phenol] | D (D=>20 uM) | 
NC(=O)c1ccc(F)c(-c2nnc(NC3(c4ncccc4F)CCC3)[nH]2)c1 [4-fluoro-3-(5-(1-(3-fluoropyridin-2-yl)cyclobutylamino)-4H-1,2,4-triazol-3-yl)benzamide] |  | Mean AC1.4 (Table 5): D (D=>20 uM)
N#Cc1ccc(Cl)c(-c2nnc(NC[C@]3(c4ncccc4F)C[C@H](F)C3)s2)c1 [4-chloro-3-(5-(((trans)-3-fluoro-1-(3-fIuoropyridin-2-yl)cyclobutyl)methylamino)-1,3,4-thiadiazol-2-yl)benzonitrile] |  | Mean AC1.4 (Table 3): A (A=<1 uM)
Oc1cccc(Cc2nsc(NCCc3ccc(Cl)cc3)n2)c1 [3-[(5-{[2-(4-chlorophenyl)ethyl]amino}-1,2,4-thiadiazol-3-yl)methyl]phenol] | B (B=1-10 uM) | 
NC(=O)c1ccc(-c2nnc(NCC3(c4ncccc4F)CCC3)s2)cc1 [4-(5-((1-(3-fluoropyridin-2-yl)cyclobutyl)methylamino)-1,3,4-thiadiazol-2-yl)benzamide] |  | Mean AC1.4 (Table 3): D (D=>20 uM)
NC(=O)c1ccc(F)c(-c2nsc(NC3(c4ncccc4F)CCC3)n2)c1 [4-fluoro-3-(5-{[(3-fluoro(2-pyridyl))cyclobutyl]amino}(1,2,4-thiadiazol-3-yl))benzamide] | D (D=>20 uM) | 
CCOC(=O)c1ccc2nc(NCC(C)(C)c3ccc(F)cc3)sc2c1 [ethyl 2-(2-(4-fluorophenyl)-2-methylpropylamino)benzo[d] thiazole-6-carboxylate] |  | Mean AC1.4 (Table 4): B (B=1-10 uM)
N#Cc1ccc(Cl)c(-c2nnc(NC[C@]3(c4ncccc4F)C[C@@H](F)C3)s2)c1 [4-chloro-3-(5-(((cis)-3-fluoro-1-(3-fluoropyridin-2-yl)cyclobutyl)methylamino)-1,3,4-thiadiazol-2-yl)benzonitrile] |  | Mean AC1.4 (Table 3): B (B=1-10 uM)
Fc1ccc(Br)cc1-c1nnc(NCC2(c3ncccc3F)CCC2)s1 [5-(5-bromo-2-fluorophenyl)-N-((1-(3-fluoropyridin-2-yl)cyclobutyl)methyl)-1,3,4-thiadiazol-2-amine] |  | Mean AC1.4 (Table 3): A (A=<1 uM)
CC(C)(CNc1nc2cc(C(N)=O)ccc2s1)c1ccc(F)cc1 [2-(2-(4-fluorophenyl)-2-methylpropylamino)benzo[d] thiazole-5-carboxamide] |  | Mean AC1.4 (Table 4): B (B=1-10 uM)
CC(C)(CNc1nc2ccc(C(N)=O)cc2s1)c1ccc(F)cc1 [2-(2-(4-fluorophenyl)-2-methylpropylamino)benzo[d] thiazole-6-carboxamide] |  | Mean AC1.4 (Table 4): A (A=<1 uM)
Oc1cccc(Cc2nsc(NCCc3cccc(Cl)c3)n2)c1 [3-[(5-{[2-(3-chlorophenyl)ethyl]amino}-1,2,4-thiadiazol-3-yl)methyl]phenol] | B (B=1-10 uM) | 
CC(C)(CNc1nc(CCC(=O)NCCO)ns1)c1ccc(F)cc1 [3-(5-{[2-(4-fluorophenyl)-2-methylpropyl]amino}(1,2,4-thiadiazol-3-yl))-N-(2-hydroxyethyl)propanamide] | C (C=10-20 uM) | 
Fc1cccnc1C1(CNc2nnc(-c3nccs3)s2)CCC1 [N-((1-(3-fluoropyridin-2-yl)cyclobutyl)methyl)-5-(thiazol-2-yl)-1,3,4-thiadiazol-2-amine] |  | Mean AC1.4 (Table 3): B (B=1-10 uM)
Fc1cccnc1[C@]1(CNc2nnc(-c3cc(Br)ccc3Cl)s2)C[C@@H](F)C1 [5-(5-bromo-2-chlorophenyl)-N-(((trans)-3-fluoro-1-(3-fluoropyridin-2-yl)cyclobutyl)methyl)-1,3,4-thiadiazol-2-amine] |  | Mean AC1.4 (Table 3): A (A=<1 uM)
Fc1cccnc1C1(CNc2noc(-c3ccccc3)n2)CCC1 [N-((1-(3-fluoropyridin-2-yl)cyclobutyl)methyl)-5-phenyl-1,2,4-oxadiazol-3-amine] |  | Mean AC1.4 (Table 5): D (D=>20 uM)
CC(C)(CNc1nc(Cc2ccc(O)cc2)ns1)c1ccc(Cl)cc1 [4-[(5-{[2-(4-chlorophenyl)-2-methylpropyl]amino}-1,2,4-thiadiazol-3-yl)methyl]phenol] | A (A=<1 uM) | 
CC(C)(CNc1nc(CCN2CCCC(O)C2)ns1)c1ccc(F)cc1 (stereo not drawn) [1-[2-(5-{[2-(4-fluorophenyl)-2-methylpropyl]amino}-1,2,4-thiadiazol-3-yl)ethyl]piperidin-3-ol] | C (C=10-20 uM) | 
Cn1nccc1-c1nnc(NC[C@]2(c3ncccc3F)C[C@H](F)C2)s1 [N-((3-fluoro-1-(3-fluoropyridin-2-yl)cyclobutyl)methyl)-5-(1-methyl-1H-pyrazol-5-yl)-1,3,4-thiadiazol-2-amine] |  | Mean AC1.4 (Table 3): D (D=>20 uM)
N#Cc1ccc2nc(NCCc3ccc(F)cc3)sc2c1 [2-(4-fluorophenethylamino)benzo[d] thiazole-6-carbonitrile] |  | Mean AC1.4 (Table 4): D (D=>20 uM)
CC(C)(CNc1nc(CN2CCN(S(C)(=O)=O)CC2)ns1)c1ccc(F)cc1 [1-[(5-{[2-(4-fluorophenyl)-2-methylpropyl]amino}(1,2,4-thiadiazol-3-yl))methyl]-4-(methylsulfonyl)piperazine] | C (C=10-20 uM) | 
Cc1cc(C(N)=O)sc1-c1nnc(NC[C@]2(c3ncccc3F)C[C@H](F)C2)s1 [5-(5-((3-fluoro-1-(3-fluoropyridin-2-yl)cyclobutyl)methylamino)-1,3,4-thiadiazol-2-yl)-4-methylthiophene-2-carboxamide] |  | Mean AC1.4 (Table 3): B (B=1-10 uM)

More lines, main results first:

Mean AC1.4 (Table 2) | SMILES | further results
B (B=1-10 uM) | CC(C)(CNc1nc(-c2ccc(CO)cc2)ns1)c1ccc(F)cc1 [[4-(5-{[2-(4-fluorophenyl)-2-methylpropyl]amino}-1,2,4-thiadiazol-3-yl)phenyl]methan-1-ol] | 
D (D=>20 uM) | COc1cccc(Cc2nsc(NCc3ccc(Cl)cc3)n2)c1 [[(4-chlorophenyl)methyl]{3-[(3-methoxyphenyl)methyl](1,2,4-thiadiazol-5-yl)}amine] | 
B (B=1-10 uM) | CC(C)(CNc1nc(-c2cccc(CO)c2)ns1)c1ccc(F)cc1 [[3-(5-{[2-(4-fluorophenyl)-2-methylpropyl]amino}-1,2,4-thiadiazol-3-yl)phenyl]methan-1-ol] | 
D (D=>20 uM) | CC(C)CCNc1nc(Cc2ccc(F)cc2)ns1 [{3-[(4-fluorophenyl)methyl](1,2,4-thiadiazol-5-yl)}(3-methylbutyl)amine] | 
D (D=>20 uM) | COc1cccc(C(C)c2nsc(N(C)CC(C)(C)c3ccc(F)cc3)n2)c1 (stereo not drawn) [[2-(4-fluorophenyl)-2-methylpropyl]{3-[(3-methoxyphenyl)ethyl](1,2,4-thiadiazol-5-yl)}methylamine] | 
D (D=>20 uM) | CC(Cc1ccc(Cl)cc1)Nc1nc(Cc2ccc(F)cc2)ns1 (stereo not drawn) [[2-(4-chlorophenyl)-isopropyl]{3-[(4-fluorophenyl)methyl](1,2,4-thiadiazol-5-yl)}amine] | 
D (D=>20 uM) | Fc1ccc(Cc2nsc(NCc3ccc(Cl)c(Cl)c3)n2)cc1 [[(3,4-dichlorophenyl)methyl]{3-[(4-fluorophenyl)methyl])1,2,4-thiadiazol-5-yl)}amine] | 
B (B=1-10 uM) | Fc1cccnc1C1(CNc2nc(-c3ccccc3)ns2)CCC1 [{[(3-fluoro(2-pyridyl))cyclobutyl]methyl}(3-phenyl(1,2,4-thiadiazol-5-yl))amine] | 
B (B=1-10 uM) | COc1ccc(-c2nsc(NCC(C)(C)c3ccc(F)cc3)n2)c(Cl)c1 [[3-(2-chloro-4-methoxyphenyl)(1,2,4-thiadiazol-5-yl)][2-(4-fluorophenyl)-2-methylpropyl]amine] | 
A (A=<1 uM) | COc1ccc(Cc2nsc(NCC(C)(C)c3ccc(F)cc3)n2)cc1 [[2-(4-fluorophenyl)-2-methylpropyl]{3-[(4-methoxyphenyl)methyl](1,2,4-thiadiazol-5-yl)}amine] | 
B (B=1-10 uM) | CC(C)(CNc1nc(-c2ccccc2CO)ns1)c1ccc(F)cc1 [[2-(5-{[2-(4-fluorophenyl)-2-methylpropyl]amino}-1,2,4-thiadiazol-3-yl)phenyl]methan-1-ol] | 
B (B=1-10 uM) | C[C@H](CNc1nc(-c2cncc(C(N)=O)c2)ns1)c1ccc(F)cc1 [5-(5-{[(2S)-2-(4-fluorophenyl)propyl]amino}-1,2,4-thiadiazol-3-yl)pyridine-3-carboxamide] | 
D (D=>20 uM) | Clc1ccc(CNc2nc(Cc3ccc(Cl)cc3)ns2)cc1 [[(4-chlorophenyl)methyl]{3-[(4-chlorophenyl)methyl](1,2,4-thiadiazol-5-yl)}amine] | 
B (B=1-10 uM) | COc1ccc(-c2nsc(NCC(C)(C)c3ccc(F)cc3)n2)cn1 [[2-(4-fluorophenyl)-2-methylpropyl][3-(6-methoxy(3-pyridyl))(1,2,4-thiadiazol-5-yl)]amine] | 
D (D=>20 uM) | Cc1ccc(Cc2nsc(NCCc3ccc(Cl)cc3Cl)n2)cc1 [[2-(2,4-dichlorophenyl)ethyl]{3-[(4-methylphenyl)methyl](1,2,4-thiadiazol-5-yl)}amine] | 
D (D=>20 uM) | Fc1ccc(Cc2nsc(Nc3ccc(Cl)cc3)n2)cc1 [(4-chlorophenyl){3-[(4-fluorophenyl)methyl](1,2,4-thiadiazol-5-yl)}amine] | 
D (D=>20 uM) | COc1cccc(Cc2nsc(NCc3ccc(Cl)c(Cl)c3)n2)c1 [[(3,4-dichlorophenyl)methyl]{3-[(3-methoxyphenyl)methyl](1,2,4-thiadiazol-5-yl)}amine] | 
